# Measured values taken from article PMC10992699, “Comparative structure activity and target exploration of 1,2-diphenylethynes in Haemonchus contortus and Caenorhabditis elegans” (International Journal for Parasitology: Drugs and Drug …, 2024).
# What was measured:
# [1] = test system: C. elegans young adults; set-up: method as in Taki et al., 2021a; conditions: previous HitFinder library screen, ref Taki et al., 2021a, cited from earlier work
# [2] = test system: adult females of Haemonchus contortus; assay: Motility of adult female H. contortus in vitro; assay type: cell-based; conditions: 40 μM; 24 h of incubation; normalised to negative control
# Procedure: Adult H. contortus were collected from the abomasa of sheep infected for 10 weeks, washed extensively with phosphate-buffered saline (PBS, pH 7.4) and subsequently in RPMI 1640 media supplemented with final concentrations of 2 mM L-glutamine, 100 IU/mL of penicillin, 100 μg/mL of streptomycin and 0.25 μg/mL of amphotericin B (Thermo Fisher Scientific, Scoresby, VIC, Australia; this supplemented RPMI was designated RPMI*). Female and male worms were collected and separated immediately prior to compound testing.
# The activity of UMW-9729 and six derivatives (12, 14, 15, 16, 18 and 25) was assessed on adult female specimens of H. contortus in an established assay ([Taki et al., 2020]). The compound was added in triplicate to the wells of a 24-well plate (cat. no. 3524; Corning, USA) at a concentration of 40 μM in 500 μL of RPMI* (RPMI supplemented with final concentrations of 2 mM L-glutamine, 100 IU/mL of penicillin, 100 μg/mL of streptomycin and 0.25 μg/mL of amphotericin B; Thermo Fisher Scientific, Scoresby, VIC, Australia). Two positive-control compounds, monepantel and moxidectin, and a negative control containing 1 % (v/v) DMSO only, were included in triplicates on the same plate. Three adult females were added to each of the triplicate wells containing either the test compound or the controls and placed in a CO2 incubator (10 % (v/v) CO2, 40 °C, >90 % relative humidity) for 1 day. A video recording (30 s) of each well was taken at 3 h, 6 h, 12 h and 24 h during the total incubation period to assess the reduction in worm motility, which was scored as 3 (“good”), 2 (“low”), 1 (“very low”) or 0 (“no movement”; cf. [Taki et al., 2020]). For each test or control compound, the motility scores for each of the triplicate wells were calculated, normalised with reference to the negative control (100 % motility) and recorded as a percentage.
# [3] = biological target: T1, B0361.6 (Caenorhabditis elegans, UniProt Q10950); assay: Thermal proteome profiling (TPP); assay type: binding; conditions: compound 50 μM, C. elegans lysate, 37-67 °C
# T1 construct: from tissue; host or cells: whole-worm lysate of C. elegans N2 (young adults / L4s)
# [4] = test system: H. contortus xL3s; assay: H. contortus xL3 motility dose-response assay; assay type: cell-based, Haemonchus contortus
# Procedure: Immediately prior to use in assays, H. contortus L3s were exsheathed via exposure to 0.15 % (v/v) sodium hypochlorite for 20 min at 38 °C ([Preston et al., 2015]), achieving an exsheathment rate of 90 %. The larvae were then immediately washed five times with 50 mL of sterile physiological saline (pH 7.0) by centrifugation at 2000×g (5 min) and resuspended (at a concentration of 300 xL3s per 50 μL) in sterile (autoclaved) lysogeny broth (LB; cf. [Bertani, 1951]; [Taki et al., 2021b]), supplemented with final concentrations of 100 IU/mL of penicillin, 100 μg/mL of streptomycin and 0.25 μg/mL of amphotericin B (Fungizone®, cat. No. 15240-062, Gibco, Thermo Fisher Scientific, Waltham, MA, USA); this supplemented LB was designated LB*.
# The dose-response assay for H. contortus followed a well-established protocol ([Taki et al., 2021b]); it was employed to evaluate the potency of hit compounds against this nematode. Test compounds were assessed individually for an effect on the motility of xL3s (10-point, 2-fold serial dilution in LB*, 40 μM–[…]). […] A solution of LB* was used as a negative control. The test compounds and positive control compounds (monepantel and moxidectin) were arrayed in triplicate across individual flat-bottom 96-well microplates, with six wells on each plate containing the negative control. Added to each well were 300 xL3s of H. contortus in 50 μL of LB* to give a final volume of 100 μL. Plates were then placed in a CO2 incubator (10 % (v/v) CO2, 38 °C, >90 % humidity; Forma, model no. 311, Thermo Fisher Scientific, USA). […] Over a period of 15 min, disturbance of an infrared beam in individual wells was recorded as an ‘activity count’. Raw ‘activity counts’ for individual wells were normalised to the negative-controls. The compound concentrations were log10-transformed and fitted using a variable slope four-parameter equation, using the ordinary least squares fit model, employing Prism (v.9.1.0 GraphPad Software, San Diego, CA, USA). Larval development was established at 168 h of incubation with compound, as described previously ([Preston et al., 2015]). The phenotypes of larvae were examined using a microscope ([Preston et al., 2015]) and recorded.
# [5] = biological target: T2, PGP-1 (Caenorhabditis elegans, UniProt P34712); assay: Thermal proteome profiling (TPP); assay type: binding; conditions: compound 50 μM, C. elegans lysate, 37-67 °C
# T2 construct: from tissue; host or cells: whole-worm lysate of C. elegans N2 (young adults / L4s), NP-40 extract
# [6] = biological target: T3, TRXR-1 (Caenorhabditis elegans, UniProt Q17745); assay: Thermal proteome profiling (TPP); assay type: binding; conditions: compound 50 μM, C. elegans lysate, 37-67 °C
# T3 construct: from tissue; host or cells: whole-worm lysate of C. elegans N2 (young adults / L4s)
# [7] = biological target: T4, UNC-11 (Caenorhabditis elegans, UniProt Q9XZI6); assay: Thermal proteome profiling (TPP); assay type: binding; conditions: compound 50 μM, C. elegans lysate, 37-67 °C
# T4 construct: from tissue; host or cells: whole-worm lysate of C. elegans N2 (young adults / L4s)
# T4 sequence (Q9XZI6 whole entry): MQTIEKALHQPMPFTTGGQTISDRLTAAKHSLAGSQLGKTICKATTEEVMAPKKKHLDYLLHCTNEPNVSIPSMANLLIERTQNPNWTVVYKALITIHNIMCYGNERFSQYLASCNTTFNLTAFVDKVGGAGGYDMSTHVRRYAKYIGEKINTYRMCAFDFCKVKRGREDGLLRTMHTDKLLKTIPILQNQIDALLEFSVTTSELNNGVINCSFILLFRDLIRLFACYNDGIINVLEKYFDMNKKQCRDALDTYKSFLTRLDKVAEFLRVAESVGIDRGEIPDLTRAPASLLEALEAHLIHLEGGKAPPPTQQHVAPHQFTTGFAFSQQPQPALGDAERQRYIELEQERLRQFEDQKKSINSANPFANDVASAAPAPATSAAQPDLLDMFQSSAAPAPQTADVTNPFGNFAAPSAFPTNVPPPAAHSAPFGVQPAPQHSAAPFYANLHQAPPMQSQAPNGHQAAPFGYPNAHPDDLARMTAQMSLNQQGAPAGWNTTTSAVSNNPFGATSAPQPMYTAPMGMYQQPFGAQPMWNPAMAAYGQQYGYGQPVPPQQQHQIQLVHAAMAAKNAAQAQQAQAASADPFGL
# T2 sequence (P34712 whole entry): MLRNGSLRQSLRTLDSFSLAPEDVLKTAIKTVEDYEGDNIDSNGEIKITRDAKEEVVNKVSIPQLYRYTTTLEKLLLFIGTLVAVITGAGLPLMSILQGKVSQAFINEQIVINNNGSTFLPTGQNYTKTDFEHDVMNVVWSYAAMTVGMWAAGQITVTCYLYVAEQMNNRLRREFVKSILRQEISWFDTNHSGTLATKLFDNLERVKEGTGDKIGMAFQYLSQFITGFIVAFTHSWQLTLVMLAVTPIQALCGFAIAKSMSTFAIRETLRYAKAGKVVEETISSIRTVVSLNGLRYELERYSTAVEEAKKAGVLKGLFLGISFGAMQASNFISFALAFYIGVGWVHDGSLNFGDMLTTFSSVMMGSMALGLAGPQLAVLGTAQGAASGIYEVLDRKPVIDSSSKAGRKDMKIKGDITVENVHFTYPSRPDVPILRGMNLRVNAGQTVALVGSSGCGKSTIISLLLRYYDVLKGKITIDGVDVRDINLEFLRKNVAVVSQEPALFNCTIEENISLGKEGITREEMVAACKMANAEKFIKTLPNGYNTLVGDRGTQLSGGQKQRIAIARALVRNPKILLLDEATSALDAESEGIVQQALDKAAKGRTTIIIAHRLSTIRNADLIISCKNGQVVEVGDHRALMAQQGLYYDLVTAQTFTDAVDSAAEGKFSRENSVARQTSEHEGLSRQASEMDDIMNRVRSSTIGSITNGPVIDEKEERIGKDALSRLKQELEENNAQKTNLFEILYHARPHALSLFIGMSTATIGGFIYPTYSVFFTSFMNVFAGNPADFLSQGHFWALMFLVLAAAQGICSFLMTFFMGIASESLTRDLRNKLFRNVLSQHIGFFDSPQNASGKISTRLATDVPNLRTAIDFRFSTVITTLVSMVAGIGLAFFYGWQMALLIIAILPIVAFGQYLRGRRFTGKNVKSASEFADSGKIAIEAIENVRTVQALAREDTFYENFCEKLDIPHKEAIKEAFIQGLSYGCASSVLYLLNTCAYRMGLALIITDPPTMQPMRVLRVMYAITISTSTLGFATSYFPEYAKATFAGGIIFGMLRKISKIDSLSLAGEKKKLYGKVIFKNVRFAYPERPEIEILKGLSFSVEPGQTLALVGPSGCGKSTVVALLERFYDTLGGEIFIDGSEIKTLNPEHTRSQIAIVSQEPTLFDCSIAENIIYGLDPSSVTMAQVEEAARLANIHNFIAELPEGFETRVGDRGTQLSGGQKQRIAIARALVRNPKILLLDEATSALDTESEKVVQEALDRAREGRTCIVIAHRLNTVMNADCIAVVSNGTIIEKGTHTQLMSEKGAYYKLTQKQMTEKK
# T3 sequence (Q17745 whole entry): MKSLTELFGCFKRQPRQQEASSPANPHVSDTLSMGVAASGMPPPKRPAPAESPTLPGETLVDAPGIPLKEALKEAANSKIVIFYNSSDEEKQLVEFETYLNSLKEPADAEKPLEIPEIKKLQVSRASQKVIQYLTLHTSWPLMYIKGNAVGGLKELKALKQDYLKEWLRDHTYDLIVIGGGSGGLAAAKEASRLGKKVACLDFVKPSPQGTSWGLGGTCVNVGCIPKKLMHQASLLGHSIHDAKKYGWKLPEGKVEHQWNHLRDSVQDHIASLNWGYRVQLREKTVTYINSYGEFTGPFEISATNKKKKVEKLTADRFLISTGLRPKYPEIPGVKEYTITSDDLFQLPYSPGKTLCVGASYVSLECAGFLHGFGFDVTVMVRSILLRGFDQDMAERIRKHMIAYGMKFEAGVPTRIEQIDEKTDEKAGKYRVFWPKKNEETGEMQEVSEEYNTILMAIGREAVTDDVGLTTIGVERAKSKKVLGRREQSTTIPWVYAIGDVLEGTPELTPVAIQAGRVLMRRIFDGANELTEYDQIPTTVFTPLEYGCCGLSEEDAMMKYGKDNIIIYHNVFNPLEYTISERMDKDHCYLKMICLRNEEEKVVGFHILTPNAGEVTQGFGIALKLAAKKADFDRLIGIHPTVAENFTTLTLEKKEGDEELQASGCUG
# T1 sequence (Q10950 whole entry): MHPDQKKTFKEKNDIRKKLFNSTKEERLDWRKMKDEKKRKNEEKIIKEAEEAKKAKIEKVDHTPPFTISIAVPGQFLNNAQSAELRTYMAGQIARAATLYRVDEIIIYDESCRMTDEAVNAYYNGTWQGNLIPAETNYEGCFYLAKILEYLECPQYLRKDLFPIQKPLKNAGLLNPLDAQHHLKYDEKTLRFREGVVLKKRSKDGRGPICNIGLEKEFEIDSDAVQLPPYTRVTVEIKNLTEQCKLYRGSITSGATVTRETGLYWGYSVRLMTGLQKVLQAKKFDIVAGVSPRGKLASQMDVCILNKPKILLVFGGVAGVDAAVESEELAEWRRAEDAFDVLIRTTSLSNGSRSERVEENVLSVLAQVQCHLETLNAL
compound,measurement,setting,value
C(#Cc1ccc(-c2ccn[nH]2)cc1)c1ccccc1 [UMW-9729],"maximum motility inhibition, young adults of C. elegans",[1],88.9%
same,IC50,"[1]; read-out: half-maximal inhibitory concentration (IC50), motility of young adults of C. elegans",5.6 µM
same,"reduction of worm motility, adult females of H. contortus",[2],did not
same,F-statistic,[3]; NPARC,24.2
same,thermal stability of protein in the presence of compound,[3],stabilised
same,IC50,"[4]; Haemonchus contortus, 90 h, xL3s, 90 h incubation (table title), three independent assays in triplicate, read-out: Worm motility IC50 ± SD, H. contortus xL3s",6.7 ± 0.4 µM
same,"fold more active than moxidectin, H. contortus larvae",[4]; ratio of xL3 motility IC50 to moxidectin,~3 fold
same,F-statistic,[5]; NPARC,27.4
same,thermal stability of protein in the presence of compound,[5],stabilised
same,F-statistic,[6]; NPARC,20.2
same,thermal stability of protein in the presence of compound,[6],stabilised
same,F-statistic,[7]; NPARC,23.0
same,thermal stability of protein in the presence of compound,[7],stabilised
